IC50 data for 1 molecule are collected here from paper PMC6268433, “New Sorafenib Derivatives: Synthesis, Antiproliferative Activity Against Tumour Cell Lines and Antimetabolic Evaluation” (Molecules, 2012).

Assay [1] has as its system protein synthesis in CEM cells. As to the kind of experiment: Antimetabolic activity: [4,5-3H]Leu incorporation (protein synthesis) in CEM cell cultures. Format: cell-based. To be noted: Homo sapiens, CCRF-CEM, ~20 h, TCA-insoluble material. The text has this:
(§1) A variety of compounds (2a, 3a, 4a with a cycloalkyl substituent directly attached to nitrogen atom, 2c, 3c, 4c with a cycloalkyl bound to nitrogen through a short spacer and 2e, 3e, 4e with an aromatic substituent) have been investigated on their inhibitory activity against DNA, RNA and protein synthesis in CEM cell cultures. The compounds were equally inhibitory to dThd (DNA synthesis), Urd (RNA synthesis) and Leu (protein synthesis) incorporation into TCA-insoluble cell material. The 2 series of compounds were least inhibitory whereas the 4 series were most inhibitory (IC50 in the lower micromolar range). Their antimetabolic IC50 values closely corresponded to their antiproliferative IC50 values. They also behaved as sorafenib in terms of antimetabolic potential (Table 3).
(§2) The procedures have been modified from previously described methods. Human CEM cells were seeded in 96-well microtiter plates at 10 × 10^4 cells/200 µL-well in the presence of serial dilutions of the tested compounds. Then, 0.25 µCi of [CH3-^3H]dThd (radiospecificity: 52 Ci/mmol) or 1 µCi of [5-^3H]Urd (radiospecificity: 26 Ci/mmol) or [4,5-^3H]Leu (radiospecificity: 160 Ci/mmol) were added and the drug-exposed tumour cell cultures further incubated at 37 °C for ~20 h. Then the content of each well was transfered to glass fiber discs (Wattman, GE Healthcare, Maidstone, UK), mounted on a manifold (Millipore, Billerica, MA, USA) and subsequently washed with PBS (to remove the radiolabel material that has not been incorporated in the cellular macromolecules), 10% and 5% trichoroacetic acid (TCA) (to precipitate DNA, RNA and proteins) and ethanol. Then, the radioactivity (TCA precipitate) associated with each disc was determined in a liquid scintillation counter (Packard, Palo Alto, CA, USA).

A further assay relates to CEM (human lymphoma). As to the kind of experiment: Cytostatic activity, Coulter counter. Type of assay: cell-based. To be noted: 72 h, cell number by Coulter counter; read-out: Tumour cell growth/IC50 CEM. The method, then:
(§3) The experiments were carried out on six human tumour and one murine cell lines, which are derived from five solid tumour types and two (one murine and one human) suspension tumour cell lines. The following cell lines were used: HCT 116 (colon carcinoma), SW 620 (colon carcinoma), MCF-7 (breast carcinoma), H 460 (lung carcinoma), L1210 (murine leukemia), CEM (human lymphoma) and HeLa (cervix carcinoma). […] Compounds 3d and 3e with a benzene ring in the amide moiety, exerted a somewhat stronger (but still rather poor) cytostatic effect (IC50 ≈ 20-90 µM). […] The compounds were also equally cytostatic against primary human embryonic lung (HEL) fibroblast cells (Table 2). The obtained data clearly point to the obligatory presence of the [4-chloro-3-(trifluoromethyl)phenyl]carbamoyl group being crucial for high potency. Also, the 4a–e series of compounds are far more lipophilic than the 2 and 3 series of compounds, which may be related to their increased cytostatic potential.
(§4) The cytostatic activity of the tested compounds against murine leukemia L1210, human cervix carcinoma HeLa, human embrionic lung (HEL) and T-lymphocyte CEM cells was determined with cells grown in suspension (L1210, CEM) or monolayers (HeLa, HEL) in 200 µL-wells of 96-well microtiter plates (initial cell number: 5–7.5 × 10^4 cells/well). After 48 (L1210) or 72 (CEM, HeLa, HEL) h, the tumour cell number was determined by the use of a Coulter counter.

For assay [2], the system named is primary human embryonic lung (HEL) fibroblast cells. Description: Cytostatic activity, Coulter counter. Type of assay: cell-based. To be noted: 72 h, cell number by Coulter counter; primary fibroblasts. As to the method: as §3, §4
A further assay deals with L1210 (murine leukemia). Description: Cytostatic activity, Coulter counter. Format: cell-based. Conditions: 48 h, cell number by Coulter counter; read-out: Tumour cell growth/IC50 L1210. As to the method:
as §3, §4

The next assay has as its system HeLa (cervix carcinoma). Description: Cytostatic activity, Coulter counter. Format: cell-based, human. To be noted: 72 h, cell number by Coulter counter; read-out: Tumour cell growth/IC50 HeLa. The method, then:
as §3, §4

The test system of assay [3] is HCT 116 (colon carcinoma). As to the kind of experiment: Cytostatic activity, MTT assay. Format: cell-based, human. Conditions: 72 h, read-out: Tumour cell growth/IC50 HCT 116. As to the method: as §3
(§5) HCT 116, SW 620, MCF-7, and H 460 cells were cultured as monolayers and maintained in Dulbecco’s modified Eagle medium (DMEM), supplemented with 10% fetal bovine serum (FBS), 2 mmol·L^–1 L-glutamine, 100 U·mL^–1 penicillin and 100 μg·mL^–1 streptomycin in a humidified atmosphere with 5% CO2 at 37 °C. The growth inhibition activity was assessed as described previously, according to the slightly modified procedure of the National Cancer Institute, Developmental Therapeutics Program. Briefly, the cells were seeded onto standard 96-well microtiter plates on day 0. The cell concentrations were adjusted according to the cell population doubling time (PDT): 3000 cells/well for HCT116 and SW 620 cell lines (PDT = 20–24 h) and 4,000 cells/well for MCF-7 cell lines (PDT = 33 h). Tested agents were then added in five consecutive 10-fold dilutions (10^–8 to 10^–4 mol·L^–1) and incubated for further 72 h. Working dilutions were freshly prepared on the day of testing. The solvent (DMSO) was also tested for eventual inhibitory activity by adjusting its concentration to be the same as in working concentrations (maximal concentration of DMSO was 0.25%). After 72 h of incubation, the cell growth rate was evaluated by performing the MTT assay (Promega) which detects dehydrogenase activity in viable cells. The absorbency (OD, optical density) was measured on a microplate reader at 570 nm. Each test point was performed in quadruplicate in at least three individual experiments. The results are expressed as IC50, which is the concentration necessary for 50% of inhibition. […] Each result is a mean value from three separate experiments.
Background: Tetrazolium dyes change colour on reduction, which living cells bring about.

In another assay the test system is SW 620 (colon carcinoma). As to the kind of experiment: Cytostatic activity, MTT assay. Type of assay: cell-based, human. To be noted: 72 h, read-out: Tumour cell growth/IC50 SW 620. The method, then:
as §3, §5

The next assay relates to H 460 (lung carcinoma). Description: Cytostatic activity, MTT assay. To be noted: 72 h, read-out: Tumour cell growth/IC50 H 460. Format: cell-based, human. As to the method: as §3, §5
For the next assay, the system named is MCF-7 (breast carcinoma). Description: Cytostatic activity, MTT assay. Format: cell-based, human. To be noted: 72 h, read-out: Tumour cell growth/IC50 MCF-7. The method, then:
as §3, §5

In another assay the test system is 23 cell lines. Further details: method as in PMID 20672370. To be noted: median over 23 cell lines; cited from earlier work.
In assay [4] the test system is DNA synthesis in CEM cells. Description: Antimetabolic activity: [CH3-3H]dThd incorporation (DNA synthesis) in CEM cell cultures. Format: cell-based. Conditions: Homo sapiens, CCRF-CEM, ~20 h, TCA-insoluble material.
Excerpt: as §1, §2

In assay [5] the test system is RNA synthesis in CEM cells. Description: Antimetabolic activity: [5-3H]Urd incorporation (RNA synthesis) in CEM cell cultures. Format: cell-based. To be noted: Homo sapiens, CCRF-CEM, ~20 h, TCA-insoluble material.
Excerpt: as §1, §2

Take `CNC(=O)c1cc(Oc2ccc(NC(=O)Nc3ccc(Cl)c(C(F)(F)F)c3)cc2)ccn1` [Sorafenib, 4-[4-[[4-chloro-3-(trifluoromethyl)phenyl]carbamoylamino]phenoxy]-N-methylpyridine-2-carboxamide]: the IC50 in [1] turned out to be 12 ± 7 µM; with CEM (human lymphoma) it was 3.4 ± 0.5 µM; in assay [2] it was 7.5 ± 0.7 µM; in the assay on L1210 (murine leukemia) it was 4.1 µM; in the assay with HeLa (cervix carcinoma), 3.7 ± 0.6 µM; in assay [3], 3 ± 0.8 µM. The IC50 in the assay with SW 620 (colon carcinoma) is 6 ± 1 µM; with H 460 (lung carcinoma) it was 3 ± 0.8 µM; in the assay with MCF-7 (breast carcinoma) it was 3 ± 0.7 µM; in the assay on 23 cell lines it was 4.3 µM; in [4], 8.6 ± 1.1 µM; in assay [5] it was 7.1 ± 0.2 µM.
